Entries after “also recorded” stand apart in the source; their conditions may differ. Where two headings read alike, the source gives them in different places.
Columns and labels:
[1] = tested on: SARS-CoV pseudovirus; test: microbe, parasite or virus in culture; assay type: cell-based; conditions: Severe acute respiratory syndrome coronavirus, HT-1080
[2] = tested on: SARS-CoV pseudovirus; test: microbe, parasite or virus in culture; assay type: cell-based; conditions: Severe acute respiratory syndrome coronavirus, A549-ACE2
[3] = tested on: SARS-CoV pseudovirus; test: microbe, parasite or virus in culture; assay type: cell-based; conditions: Severe acute respiratory syndrome coronavirus, 293T/ACE2
[4] = in vivo; conditions: female, rat; for AUC(0-t): Sprague Dawley
[5] = tested on: MERS-CoV pseudovirus; test: microbe, parasite or virus in culture; assay type: cell-based; conditions: Middle East respiratory syndrome-related coronavirus, MRC5
[6] = rat, in vivo
[7] = tested on: SARS-CoV-2 pseudovirus; test: microbe, parasite or virus in culture; assay type: cell-based; conditions: for IC50: Severe acute respiratory syndrome-related coronavirus, read-out: IC50s against SARS-CoV-2 pseudovirus over the cell lines
[8] = tested on: MERS-CoV pseudovirus; test: microbe, parasite or virus in culture; assay type: cell-based; conditions: Middle East respiratory syndrome-related coronavirus, Huh-7
[9] = target: SARS-CoV-2 spike (active trimer) His-tag (Severe acute respiratory syndrome coronavirus 2, UniProt P0DTC2); assay type: binding
[10] = tested on: SARS-CoV-2 full Spike wild-type (Wuhan-Hu-1) mediated cell-to-cell fusion; test: cells; assay type: cell-based; conditions: for inhibition at 0.25 µM: Severe acute respiratory syndrome coronavirus 2, Jurkat, at 250 nM, read-out: inhibitory activity of SARS-CoV-2 mediated cell-to-cell fusion
[11] = tested on: SARS-CoV-2 (US_WA-1/2020); assay type: cell-based
[12] = in vitro; conditions: human
[13] = tested on: MERS-CoV pseudovirus; test: microbe, parasite or virus in culture; assay type: cell-based; conditions: Middle East respiratory syndrome-related coronavirus, read-out: IC50 against MERS-CoV pseudovirus
[14] = tested on: SARS-CoV-2 pseudovirus; test: microbe, parasite or virus in culture; assay type: cell-based; conditions: Severe acute respiratory syndrome-related coronavirus, A549-ACE2
[15] = tested on: SARS-CoV pseudovirus; assay type: cell-based
[16] = in vitro; conditions: human; remark: listed apart in the source
[17] = in vitro; conditions: human; remark: listed apart in the source
[18] = in vitro; conditions: human, Caco-2, pH 7.4
[19] = both, human, microsomes
[20] = in vitro; conditions: both, human, plasma
[21] = female, Sprague Dawley, iv, 5 mg/kg

`O=C(O)c1cccc(-c2ccc(/C=C3\SC(=S)N(CCc4ccccc4)C3=O)o2)c1` [Compound 2] gave an IC50 [1] of 19.3 to 39 nM, an IC50 [2] of 98 to 157 nM and an IC50 [3] of 13.8 to 17 nM. For the same compound, the AUC(0-t) ([4]; iv, 5 mg/kg) was 17100 ng·h/mL, the AUC(0-t) ([4]; po, 10 mg/kg) was 319 ng·h/mL and the half-life ([4]; Sprague-Dawley, iv, 5 mg/kg) was 3.5 to 3.9 h. For the same compound, the IC50 [5] was 76.5 to 123 nM, the C0 [6, 21] was 1710.87 ng/mL and the CLobs [6, 21] was 0.00027 mg/kg/(ng/mL)/hr. The MRT0-inf_obs [6, 21] was 5.09 h, the Vss_obs [6, 21] was 0.0014 mg/kg/(ng/mL) and the Vss_obs ([6]; female, Sprague Dawley, po, 10 mg/kg) was 0 mg/kg/(ng/mL). For the same compound, the F % ([6]; female, Sprague-Dawley) was 0.9%, the MRT0-inf_obs ([6]; female, Sprague-Dawley, po, 10 mg/kg) was 7.28 h and the Vz/F_obs ([6]; po, 10 mg/kg) was 0.1759 mg/kg/(ng/mL). For the same compound, the “antiviral activity against SARS-CoV-2 pseudovirus (in words)” value (“antiviral activity” below) [7] was “low nanomolar activity; also recorded: best antiviral potency; also recorded: low nM IC50”, the IC50 [7] was 22.8 to 58 nM and the IC50 [8] was 95 to 158 nM. For the same compound, the ka [9] was 872 M⁻¹ s⁻¹, the “inhibition of SARS-CoV-2 mediated cell-to-cell fusion (in words)” value (from here on “inhibition … (in words)”) [10] was “potently inhibited the cell-to-cell fusion even at the lowest dose” and the inhibition at 0.25 µM [10] was 62 to 79%. It also gave an IC100 [11] of 1.25 µM.

`O=C(O)c1cc(-c2ccc(/C=C3\SC(=S)N(CCc4ccccc4)C3=O)o2)ccc1F` [Compound 3] showed an IC50 [1] of 19.3 to 39 nM, an IC50 [2] of 98 to 157 nM and an IC50 [3] of 13.8 to 17 nM. The IC50 [5] was 76.5 to 123 nM, the “antiviral activity” value [7] was “somewhat reduced activity” and the “selectivity index (SI, ratio CC50/IC50) over the cell lines” value [7] was 750->1563. For the same compound, the IC50 [7] was 60.1 to 120 nM, the IC50 [8] was 95 to 158 nM and the CC50 [12] was 45000 ± 5000 nM. The IC100 [11] was 2.5 µM.

In the case of `Cc1ccc(-c2ccc(/C=C3\SC(=S)N(CCc4ccccc4)C3=O)o2)cc1C(=O)O` [Compound 4], the IC50 [5] is reported as 76.5 to 123 nM, the “antiviral activity” value [7] is reported as “low nanomolar activity; also recorded: excellent antiviral activity” and the IC50 [7] is reported as 26 to 73 nM. For the same compound, the IC50 [8] was 95 to 158 nM, the “inhibition … (in words)” value [10] was “potently inhibited the cell-to-cell fusion even at the lowest dose” and the inhibition at 0.25 µM [10] was 62 to 79%. The IC100 [11] was 2.5 µM.

For `Cc1c(C(=O)O)cccc1-c1ccc(/C=C2\SC(=S)N(CCc3ccccc3)C2=O)o1` [Compound 5], the IC50 [13] was greater than 2000 nM, the IC50 [14] was greater than 2000 nM and the “inhibition … (in words)” value [10] was “only inhibited the SARS-CoV-2 mediated cell-to-cell fusion at the higher dose (4 μM)”. The IC100 [11] was greater than 10 µM and the “activity against SARS-CoV pseudovirus (in words)” value [15] was “poor activity”.

With `CCc1ccc(-c2ccc(/C=C3\SC(=S)N(CCc4ccccc4)C3=O)o2)cc1C(=O)O` [Compound 6] the IC50 [13] was less than 1000 nM, the “antiviral activity” value [7] was “slightly lower antiviral activity” and the CC50 [12] was 40000 ± 6000 nM. For the same compound, the IC100 [11] was greater than 10 µM.

Compound `O=C(O)c1cccc(-c2ccc(/C=C3\SC(=S)N(CCc4ccccc4)C3=O)o2)c1F` [Compound 7] has an IC50 [13] of less than 1000 nM and an IC100 [11] of 5 µM.

For `O=C(O)c1cc(-c2ccc(/C=C3\SC(=S)N(CCc4ccccc4)C3=O)o2)ccc1Br` [Compound 8], the IC50 [13] was less than 1000 nM, the “antiviral activity” value [7] was “excellent antiviral activity” and the IC100 [11] was 5 µM.

With `Cc1c(C(=O)O)cncc1-c1ccc(/C=C2\SC(=S)N(CCc3ccccc3)C2=O)o1` [Compound 9] the IC100 [11] was 2.5 µM.

For `O=C1C(=Cc2ccc(-c3ccc(Cl)cc3)o2)SC(=S)N1CCc1ccccc1` [Compound 10, 5-((5-(4-chlorophenyl)furan-2-yl)methylene)-3-phenethyl-2-thioxothiazolidin-4-one], the “antiviral activity” value [7] was “no antiviral potency at the highest dose tested” and the IC50 [7] was greater than 2000 nM.

Work on `NS(=O)(=O)c1ccc(-c2ccc(/C=C3\SC(=S)N(CCc4ccccc4)C3=O)o2)cc1` [Compound 11] yielded an IC50 [8] of 13.2 ± 3.7 nM and a CC50 [12] of 13300 ± 2000 nM.

For `O=C1NC(=S)S/C1=C\c1ccc(-c2ccc(Cl)c(C(=O)O)c2)o1` [Compound 12], the “antiviral activity” value [7] was “did not display any activity at the highest dose tested”.

`CCN1C(=O)/C(=C/c2ccc(-c3cccc(C(=O)O)c3)o2)SC1=S` [Compound 13] gave a CC50 [16] greater than 100000 nM and a CC50 [12] of 74000 ± 3000 nM.

With `COCCN1C(=O)/C(=C/c2ccc(-c3ccc(Cl)c(C(=O)O)c3)o2)SC1=S` [Compound 14] the CC50 [16] was greater than 100000 nM and the CC50 [12] was 81000 ± 1000 nM.

For `CN1C(=O)/C(=C/c2ccc(-c3cccc(C(=O)O)c3)o2)SC1=S` [Compound 15], the CC50 [16] was greater than 100000 nM and the CC50 [12] was 53000 ± 8000 nM.

`O=C1/C(=C/c2ccc(-c3ccccc3)o2)SC(=S)N1CCc1ccccc1` [Compound 16] showed a CC50 [16] of 40000 ± 2000 nM and a CC50 [12] of 75000 ± 7000 nM.

`C=CCN1C(=O)/C(=C/c2ccc(-c3cccc(C(=O)O)c3)o2)SC1=S` [Compound 17] gave a CC50 [16] greater than 100000 nM and a CC50 [12] greater than 100000 nM.

In the case of `O=C(O)c1cc(-c2ccc(/C=C3\SC(=S)N(C4CCCCC4)C3=O)o2)ccc1Cl` [Compound 18], the CC50 [17] is reported as greater than 100000 nM, the “antiviral activity” value [7] is reported as “excellent antiviral activity; also recorded: low nM IC50” and the IC50 [8] is reported as 10.5 ± 0.9 nM. The CC50 [16] was greater than 100000 nM and the CC50 [12] was greater than 100000 nM.

With `C=CCN1C(=O)/C(=C/c2ccc(-c3cc(C(=O)O)cc(C(=O)O)c3)o2)SC1=S` [Compound 19] the CC50 [16] was greater than 100000 nM and the CC50 [12] was greater than 100000 nM.

`C=CCN1C(=O)/C(=C/c2ccc(-c3cccc(C(=O)O)c3C)o2)SC1=S` [Compound 20] gave a CC50 [17] of 84000 ± 4000 nM, an IC50 [8] of 340 ± 112 nM and a CC50 [16] greater than 100000 nM. The CC50 [12] was greater than 100000 nM.

In the case of `O=C1NC(=S)S/C1=C\c1ccc(-c2ccc(C(=O)O)c(Cl)c2)o1` [Compound 21], the CC50 [16] is reported as greater than 100000 nM and the CC50 [12] is reported as greater than 100000 nM.

Compound `Cc1ccc(-c2ccc(/C=C3\SC(=S)N(CC(C)C)C3=O)o2)cc1C(=O)O` [Compound 22] has a CC50 [16] of 70000 ± 4000 nM and a CC50 [12] of 68000 ± 4000 nM.

For `C#CCN1C(=O)/C(=C/c2ccc(-c3ccc(Cl)c(C(=O)O)c3)o2)SC1=S` [Compound 23], the “antiviral activity” value [7] was “did not display any activity at the highest dose tested”.

With `CCN1C(=O)/C(=C/c2ccc(-c3ccc(Cl)c(C(=O)O)c3)o2)SC1=S` [Compound 24] the CC50 [17] was roughly 100000 nM, the IC50 [8] was 88 ± 13 nM and the CC50 [16] was greater than 100000 nM. It also gave a CC50 [12] of 78000 ± 3000 nM.

In the case of `O=C(O)c1cccc(-c2ccc(/C=C3\SC(=S)N(C4CCCCC4)C3=O)o2)c1` [Compound 25], the CC50 [17] is reported as greater than 100000 nM, the “antiviral activity” value [7] is reported as “displayed antiviral potency” and the IC50 [8] is reported as 247 ± 47 nM. For the same compound, the CC50 [16] was greater than 100000 nM and the CC50 [12] was greater than 100000 nM.

For `N=C1NC(=O)/C(=C/c2ccc(-c3ccc(Cl)c(C(=O)O)c3)o2)S1` [Compound 26], the CC50 [12] was greater than 100000 nM.

Work on `CN1C(=O)/C(=C/c2ccc(-c3cccc(C(=O)O)c3)o2)SC1=S` [Compound 27] yielded a CC50 [17] greater than 100000 nM and an IC50 [8] of 96 ± 14 nM.

For `O=C1NC(=S)S/C1=C\c1ccc(-c2ccc(C(=O)O)cc2)o1` [Compound 28], the “antiviral activity” value [7] was “loses the inhibitory activity; also recorded: showed no inhibition”.

In the case of `CC(C)NCC(O)COc1cccc2ccccc12` (centres unmarked) [Propranolol], the Papp [18] is reported as 19.7 ×10⁻⁶ cm/s.

With `C[C@]12CC[C@H]3[C@@H](CCC4=CC(=O)CC[C@@]43C)[C@@H]1CC[C@@H]2O` [Testosterone, reference compound] the half-life [19] was 0.188 h.

With `CC(=O)CC(c1ccccc1)c1c(O)c2ccccc2oc1=O` (centres unmarked) [Warfarin] the fraction unbound [20] was 0.018.
